Data set [1] relates to Mus musculus. Put plainly: Antiinflammatory activity in Kunming mouse assessed as reduction in xylene-induced ear edema at 5 mg/kg administered topically pretreated for 30 mins followed by xylene-treatment and measured after 30 mins relative to control. To be noted: time 60 min, 1 h. It is filed as functional. Also on record: scale not given: the % may be the effect or the level left.

Data set [2] deals with Mus musculus. Put plainly: Antiinflammatory activity in Kunming mouse assessed as reduction in xylene-induced cell infiltration in ear at 5 mg/kg administered topically pretreated for 30 mins followed by xylene-treatment and measured after 30 mins by H and E staining based microscopic method. It is filed as functional, organism-based. To be noted: time 60.0 min.
Data set [3] has as its system Mus musculus. Put plainly: Antiinflammatory activity in Kunming mouse assessed as reduction in xylene-induced vasodilation in ear at 5 mg/kg administered topically pretreated for 30 mins followed by xylene-treatment and measured after 30 mins by H and E staining based microscopic method. It is filed as functional, organism-based. To be noted: time 60.0 min.
Data set [4] can be described thus: (§1) Inhibition of NF-kappaB activation in mouse RaW264.7 cells assessed as reduction in LPS-induced NO production after 24 hrs by Griess reagent based assay. The format is cell-based. The settings on record: RAW264.7, 24 h. (In general: The Griess reaction detects nitrite, a stable product of nitric oxide.)
Data set [5] addresses MAP kinase p38 (Mus musculus) (UniProt P47811+O08911+Q9WUI1+Q9Z1B7). Put plainly: Inhibition of p38 phosphorylation in LPS-induced mouse RaW264.7 cells up to 30 uM after 24 hrs by Western blot analysis. To be noted: dose microM <=30, time 24.0 hrs.
Data set [6] has as its system RAW264.7. Briefly: Inhibition of IKKalpha/beta phosphorylation in LPS-induced mouse RaW264.7 cells up to 30 uM after 24 hrs by Western blot analysis. The settings on record: dose microM <=30, time 24.0 hrs.
In data set [7] the test system is RAW264.7. Briefly: Inhibition of NF-kappaB in mouse RaW264.7 cells assessed as reduction in LPS-induced IkappaBalpha degradation up to 30 uM after 24 hrs by Western blot analysis. The format is cell-based. To be noted: dose microM <=30, time 24.0 hrs. (In general: Immunoblotting shows a protein as a band on a membrane.)
Data set [8] deals with Mus musculus. Briefly: Antiinflammatory activity in Kunming mouse assessed as reduction in xylene-induced ear edema at 50 mg/kg administered topically pretreated for 30 mins followed by xylene-treatment and measured after 30 mins relative to control. It is filed as functional. Also on record: scale not given: the % may be the effect or the level left. To be noted: time 60 min, 1 h.

Data set [9] relates to Mus musculus. Briefly: Antiinflammatory activity in Kunming mouse assessed as reduction in xylene-induced cell infiltration in ear at 50 mg/kg administered topically pretreated for 30 mins followed by xylene-treatment and measured after 30 mins by H and E staining based microscopic method. It is filed as functional, organism-based. To be noted: time 60.0 min.
The subject of data set [10] is RAW264.7. Put plainly: Inhibition of LPS-induced iNOS protein expression in mouse RAW264.7 cells up to 30 uM after 24 hrs by Western blot analysis. It is filed as functional, cell-based. To be noted: dose microM <=30, time 24.0 hrs.
For data set [11], the system named is Mus musculus. Put plainly: Antiinflammatory activity in Kunming mouse assessed as reduction in xylene-induced ear edema at 25 mg/kg administered topically pretreated for 30 mins followed by xylene-treatment and measured after 30 mins relative to control. The format is functional. Also on record: scale not given: the % may be the effect or the level left. The settings on record: time 60 min, 1 h.

In data set [12] the test system is RAW264.7. Briefly: Inhibition of NF-kappaB phosphorylation in LPS-induced mouse RaW264.7 cells up to 30 uM after 24 hrs by Western blot analysis. To be noted: dose microM <=30, time 24.0 hrs.
Data set [13] deals with RAW264.7. Put plainly: Inhibition of JNK phosphorylation in LPS-induced mouse RaW264.7 cells up to 30 uM after 24 hrs by Western blot analysis. The settings on record: dose microM <=30, time 24.0 hrs.
Data set [14] deals with RAW264.7. Put plainly: Cytotoxicity against mouse RAW264.7 cells assessed as reduction in cell viability up to 80 uM after 24 hrs by MTT assay. The settings on record: raw264.7, 24 h. It is filed as cell-based. A general note: Formazan colour is commonly taken as a measure of viable cells.
Data set [15] relates to RAW264.7. Put plainly: Inhibition of LPS-induced COX-2 protein expression in mouse RAW264.7 cells up to 30 uM after 24 hrs by Western blot analysis. It is filed as functional, cell-based. To be noted: dose microM <=30, time 24.0 hrs.
Data set [16] relates to RAW264.7. Put plainly: Inhibition of NF-kappaB activation in mouse RaW264.7 cells assessed as reduction in LPS-induced TNF-alpha protein expression up to 30 uM after 24 hrs by Western blot analysis. The settings on record: dose microM <=30, time 24.0 hrs. It is filed as cell-based.
Data set [17] has as its system RAW264.7. Briefly: Cytotoxicity against mouse RAW264.7 cells assessed as reduction in cell viability up to 60 uM after 24 hrs in presence of LPS by MTT assay. It is filed as cell-based. To be noted: raw264.7, 24 h.
Data set [18] relates to RAW264.7. Briefly: Inhibition of NF-kappaB activation in mouse RaW264.7 cells assessed as reduction in LPS-induced IL-6 protein expression up to 30 uM after 24 hrs by Western blot analysis. The format is cell-based. To be noted: dose microM <=30, time 24.0 hrs.
In data set [19] the test system is RAW264.7. Put plainly: Inhibition of LPS-induced ROS generation in mouse RAW264.7 cells up to 40 uM after 24 hrs by DCFH-DA staining based fluorescence assay. To be noted: dose microM <=40, time 24.0 hrs. The format is functional, cell-based.
Data set [20] relates to RAW264.7. Put plainly: Inhibition of LPS-induced COX-2 mRNA expression in mouse RAW264.7 cells after 24 hrs by qRT-PCR analysis. It is filed as functional, cell-based.
Data set [21] deals with RAW264.7. Briefly: Inhibition of LPS-induced mitochondrial membrane potential loss in mouse RAW264.7 cells at 20 uM after 24 hrs by JC-1 staining based fluorescence microscopic method. The format is functional, cell-based.
In data set [22] the test system is RAW264.7. Put plainly: Inhibition of ERK phosphorylation in LPS-induced mouse RaW264.7 cells up to 30 uM after 24 hrs by Western blot analysis. To be noted: dose microM <=30, time 24.0 hrs.
The test system of data set [23] is Mus musculus. Put plainly: Antiinflammatory activity in Kunming mouse assessed as reduction in xylene-induced vasodilation in ear at 50 mg/kg administered topically pretreated for 30 mins followed by xylene-treatment and measured after 30 mins by H and E staining based microscopic method. It is filed as functional, organism-based. The settings on record: time 60.0 min.

Data set [24] concerns RAW264.7. Put plainly: Inhibition of NF-kappaB p65 nuclear translocation in LPS-induced mouse RaW264.7 cells at 20 uM after 24 hrs by DAPI staining based Immunofluorescence assay.
Data set [25] can be described thus: (§2) Inhibition of NF-kappaB activation in mouse RaW264.7 cells assessed as reduction in LPS-induced PGE2 production after 24 hrs by ELISA. The format is cell-based. The settings on record: RAW264.7, 24 h.
For data set [26], the system named is RAW264.7. The description is as §2. The format is cell-based.
In data set [27] the test system is RAW264.7. Put plainly: Inhibition of NF-kappaB activation in mouse RaW264.7 cells assessed as reduction in LPS-induced TNFalpha mRNA expression after 24 hrs by qRT-PCR analysis. The format is cell-based.
Data set [28] concerns RAW264.7. Briefly: Inhibition of NF-kappaB activation in mouse RaW264.7 cells assessed as reduction in LPS-induced IL-6 mRNA expression after 24 hrs by qRT-PCR analysis. The format is cell-based.
Data set [29] concerns RAW264.7. Briefly: Inhibition of LPS-induced iNOS mRNA expression in mouse RAW264.7 cells after 24 hrs by qRT-PCR analysis. It is filed as functional, cell-based.
Data set [30] relates to RAW264.7. The description is as §1. The format is cell-based.

The source made the active and inactive calls. The rule behind the calls is not given here.

`C[C@]12CCC(=O)C=C1CC[C@@H]1[C@@H]2[C@@H](O)C[C@@]2(C)[C@H]1CC[C@]2(O)C(=O)CO` [HYDROCORTISONE]: in data set [1], the Activity came out at 55.53%. The result in [2] and in data set [3] was Active.
What is called IC50 is the point on the concentration scale where inhibition reaches its midpoint. As to `C=C1C[C@@]23CC[C@H]4[C@@](C)(CCC[C@@]4(C)C(=O)O)[C@@H]2CC[C@@H]1C3` [KAURENOIC ACID], the IC50 in data set [4] is 50 µM.
Turning to `C=C1C[C@@]23CC[C@H]4[C@@](C)(CC[C@@H](OC(=O)/C(C)=C\C)[C@@]4(C)C(=O)O)[C@@H]2CC[C@@H]1C3`, the inhibition entry in [5], in data set [6], in data set [7], in data set [10], in data set [12] and in data set [13] was “Active” in each case. For the same compound, the inhibition result in [15], in data set [16], in [18], in data set [19], in [21] and in data set [22] was “Active” in each case. For the same compound, the inhibition result in [24] was “Active”. In addition, the Activity in data set [8] is listed as 51.57%; in data set [11], 42.44%; in data set [14] it was “Non-Toxic”; in [17], “Non-Toxic”. Further, the outcome in data set [9] and in data set [23] was Active. The inhibition result in data set [20], in data set [26], in [27], in data set [28], in [29] and in data set [30] was “Dose-dependent effect” in each case. Moreover, the IC50 in data set [25] and in data set [4] was 20.3 µM in each case.
